Experimental data from US20190192521A1, “Methods of Treating Arid1A-Mutated Cancers With HDAC6 Inhibitors and EZH2 Inhibitors” (The Wistar Institute of Anatomy and Biology, priority 2016, published 2019).

Tests used:
[1] = test system: Arid1a−/−/Pik3caH1047R clear cell ovarian tumours; test: Arid1a−/−/Pik3caH1047R genetic clear cell ovarian tumour mouse model; format: in vivo, mice; details: 50 mg/kg, 21 days
Description: Arid1a−/−/Pik3caH1047R genetic clear cell ovarian tumour mouse model. All experiments were approved by IACUC. Transgenic mice with latent mutations in Arid1a and Pik3ca were generated by crossing Arid1aflox/floxmice (kindly provided by Dr. Wang, U. Michigan and crossed onto a C57BL/6J background for 9 generations) with R26-Pik3caH1047R mice carrying inducible Pik3ca mutations (Jackson Laboratory, Jax #016977). Gao et al, 2008, Proc Natl Acad Sci USA 105, 6656-6661. Administration of intrabursal adeno-Cre, performed as previously reported, Scarlett et al. 2012, J Exp Med 209, 495-506, induce ovarian clear cell carcinoma in ˜45 days, which is similar to a previous report. All mice were maintained in specific pathogen-free barrier facilities. To induce tumorigenesis, 6-10 weeks old Pik3caH1047R/Arid1aflox/flox female mice were intrabursally injected adenovirus-Cre as previously described. Mice were randomized and treated with ACY1215 (50 mg/kg) or vehicle control for 21 days as previously published. Following treatment mice were sacrificed and the reproductive tracts were removed. The changes in volumes of tumours formed on the injected ovary were calculated against the contrary side non-injected ovary from the same mice.

[2] = test system: ARID1A-mutated TOV21G cells; test: mitochondrial membrane potential (TMRE, FACS), TOV21G; format: cell-based, human
Description: Mean of five experimental replicates with S.E.M. p-value calculated via two-tailed t-test.
FIG. 96 illustrates ARID1A-mutated TOV21G cells with or without endogenous p53 knockdown by a shp53 that targets the 3′ UTR region of the human TP53 gene together with a lentivirus encoding a control, wildtype p53 or a p53K12OR mutant—the indicated cells were treated with or without ACY1215 and examined for mitochondrial membrane potential by FACS; n=3 independent experiments.
Annexin V and mitochondria membrane potentials were measured as follows. Phosphatidylserine externalization was detected using an Annexin V staining kit (Life Technologies) following the manufacturer's instructions. To measure change in mitochondria membrane potential cells were treated with 200 nM of tetramethylrhodamine, ethyl ester (TMRE; Abcam) for 15 min at 37° C. Annexin V and TMRE-positive cells were detected using the LSR18 and analyzed with the FlowJo software module.

## O=C(CCCCCCNC(=O)c1cnc(N(c2ccccc2)c2ccccc2)nc1)NO [rocilinostat, 2-(diphenylamino)-N-(7-(hydroxyamino)-7-oxoheptyl)pyrimidine-5-carboxamide]
[1]
  tumour growth: significantly suppressed the tumour growth
[2]; 1.25 μM
  mitochondrial membrane potential in ARID1A-mutated cells: significantly decreased
[2]; p53 knockdown, wildtype p53 or p53K120R rescue
  dependence of mitochondrial membrane potential decrease: both p53 and p53K120Ac dependent
